Measurements: US4349545A, “Novel erythromycin a derivatives” (Roussel Uclaf, priority 1980, dated 1982)
Converted amounts (≈) assume the structure as drawn.

Legend:
[1] = system: Streptococcus pyogenes A 561; test: serial dilution liquid medium MIC, Streptococcus pyogenes A 561; format: cell-based; conditions: A561, 24 hours at 37° C., read-out: minimum inhibiting concentration (MIC)
Procedure: (§1) The method was a serial dilution of liquid medium test wherein a series of tubes were prepared containing the same amount of sterile nutritive medium and increasing amounts of the test product was distributed in each tube. The tubes were then seeded with a bacterial strain and incubated for 24 hours in an oven at 37° C. The degree of inhibition was determined by transillumination to determine the minimum inhibiting concentration (MIC) express in μg/ml and the results are reported in the following Tables.

[2] = system: Streptococcus faecalis 5435; test: serial dilution liquid medium MIC, Streptococcus faecalis 5435; format: cell-based; conditions: Enterococcus faecalis, 24 hours at 37° C., read-out: minimum inhibiting concentration (MIC)
Procedure: as §1

[3] = system: Staphylococcus aureus exp. n° 54 146; test: serial dilution liquid medium MIC, Staphylococcus aureus exp. n° 54 146; format: cell-based; conditions: Staphylococcus aureus exp. 54 146; 24 hours at 37° C.; read-out: minimum inhibiting concentration (MIC)
Procedure: as §1

[4] = system: Streptococcus faecalis 99 F 74; test: serial dilution liquid medium MIC, Streptococcus faecalis 99 F 74; format: cell-based; conditions: Enterococcus faecalis, 99F74, 24 hours at 37° C., read-out: minimum inhibiting concentration (MIC)
Procedure: as §1

[5] = system: Streptococcus faecalis 5432; test: serial dilution liquid medium MIC, Streptococcus faecalis 5432; format: cell-based; conditions: Enterococcus faecalis, 24 hours at 37° C., read-out: minimum inhibiting concentration (MIC)
Procedure: as §1

[6] = system: Staphylococcus aureus UC 1128; test: serial dilution liquid medium MIC, Staphylococcus aureus UC 1128 pen-resistant; format: cell-based; conditions: UC1128; Staphylococcus aureus UC 1128 pen-resistant; 24 hours at 37° C.; read-out: minimum inhibiting concentration (MIC)
Procedure: as §1

[7] = system: Staphylococcus aureus 1061; test: serial dilution liquid medium MIC, Staphylococcus aureus 1061 pen-sensibles; format: cell-based; conditions: 24 hours at 37° C., read-out: minimum inhibiting concentration (MIC)
Procedure: as §1

[8] = system: Staphylococcus aureus No. 54,146; test: In vivo activity in mice experimentally infected with Staphylococcus aureus No. 54,146; conditions: groups of 10 mice
Procedure: The test was effected with the compounds of the invention and erythromycin as a reference on groups of 10 mice weighing about 21 g experimentally infected with Staphylococcus aureus No. 54,146 by intraperitoneal administration of 0.5 ml of a 22 hour culture of the said organism in bouillon with a pH of 7 diluted to 1/6 with physiological water. The test compounds were orally administrated to the mice 1,5 and 24 hours after the infection and the mortality on the 8th day was determined.

[9] = dose 0,5mg oral, 1,5 and 24 hours after infection
[10] = dose 0,25mg oral, 1,5 and 24 hours after infection

MIC [1] [µg/mL] | MIC [2] [µg/mL] | MIC [3] [µg/mL] | MIC [4] [µg/mL] | MIC [5] [µg/mL] | MIC [6] [µg/mL] | MIC [7] [µg/mL] | SMILES | No. of mice living on the 8th day ([8]; dose 0,75mg oral, 1,5 and 24 hours after infection) [mice] | No. of mice living on the 8th day ([8]; dose 1mg oral, 1,5 and 24 hours after infection) [mice] | No. of mice living on the 8th day ([8]; dose 2mg oral, 1,5 and 24 hours after infection) [mice] | No. of mice living on the 8th day ([8]; dose 1,5mg oral, 1,5 and 24 hours after infection) [mice] | No. of mice living on the 8th day [8, 9] [mice] | No. of mice living on the 8th day [8, 10] [mice]
0.05 (≈ 0.0574 µM) | 0.4 (≈ 0.459 µM) | 0.6 (≈ 0.689 µM) | 0.2 (≈ 0.23 µM) | 0.2 (≈ 0.23 µM) | 0.6 (≈ 0.689 µM) | 0.4 (≈ 0.459 µM) | CC[C@H]1OC(=O)[C@H](C)[C@@H](O[C@H]2C[C@@](C)(OC)[C@@H](O)[C@H](C)O2)[C@H](C)[C@@H](O[C@@H]2O[C@H](C)C[C@H](N(C)C)[C@H]2O)[C@](C)(O)C[C@@H](C)C(=NOCSc2ccccc2)[C@H](C)[C@@H](O)[C@]1(C)O [Example 28, 9-[0-(phenylthiomethyl)-oxime] of erythromycin] | – | – | – | – | – | –
≤ 0.01 | 0.2 (≈ 0.243 µM) | 0.4 (≈ 0.487 µM) | 0.1 (≈ 0.122 µM) | 0.05 (≈ 0.0608 µM) | 0.4 (≈ 0.487 µM) | 0.1 (≈ 0.122 µM) | CC[C@H]1OC(=O)[C@H](C)[C@@H](O[C@H]2C[C@@](C)(OC)[C@@H](O)[C@H](C)O2)[C@H](C)[C@@H](O[C@@H]2O[C@H](C)C[C@H](N(C)C)[C@H]2O)[C@](C)(O)C[C@@H](C)C(=NOCOCCN)[C@H](C)[C@@H](O)[C@]1(C)O [Example 24, 9-[0-{(2-aminoethoxy}-methyl)-oxime] of erythromycin] | – | – | – | – | – | –

Second part, the compound before the results:

SMILES | MIC [1] [µg/mL] | MIC [2] [µg/mL] | MIC [3] [µg/mL] | MIC [4] [µg/mL] | MIC [5] [µg/mL] | MIC [6] [µg/mL] | MIC [7] [µg/mL] | No. of mice living on the 8th day ([8]; dose 0,75mg oral, 1,5 and 24 hours after infection) [mice] | No. of mice living on the 8th day ([8]; dose 1mg oral, 1,5 and 24 hours after infection) [mice] | No. of mice living on the 8th day ([8]; dose 2mg oral, 1,5 and 24 hours after infection) [mice] | No. of mice living on the 8th day ([8]; dose 1,5mg oral, 1,5 and 24 hours after infection) [mice] | No. of mice living on the 8th day [8, 9] [mice] | No. of mice living on the 8th day [8, 10] [mice]
CC[C@H]1OC(=O)[C@H](C)[C@@H](O[C@H]2C[C@@](C)(OC)[C@@H](O)[C@H](C)O2)[C@H](C)[C@@H](O[C@@H]2O[C@H](C)C[C@H](N(C)C)[C@H]2O)[C@](C)(O)C[C@@H](C)C(=O)[C@H](C)[C@@H](O)[C@]1(C)O [Erythromycin, erythromycin] | – | – | – | – | – | – | – | 5 | 9 | 10 | 9 | – | –
CCSCC(O)CON=C1[C@H](C)C[C@@](C)(O)[C@H](O[C@@H]2O[C@H](C)C[C@H](N(C)C)[C@H]2O)[C@@H](C)[C@H](O[C@H]2C[C@@](C)(OC)[C@@H](O)[C@H](C)O2)[C@@H](C)C(=O)O[C@H](CC)[C@@](C)(O)[C@H](O)[C@H]1C (stereo partly drawn) [Example 16, 9-[0-(3-ethylthio-2-hydroxy-propyl)-oxime] of erythromycin] | 0.05 (≈ 0.0577 µM) | 1 (≈ 1.15 µM) | 0.4 (≈ 0.461 µM) | 0.1 (≈ 0.115 µM) | 0.2 (≈ 0.231 µM) | 0.6 (≈ 0.692 µM) | 0.4 (≈ 0.461 µM) | – | – | – | – | – | –
CC[C@H]1OC(=O)[C@H](C)[C@@H](O[C@H]2C[C@@](C)(OC)[C@@H](O)[C@H](C)O2)[C@H](C)[C@@H](O[C@@H]2O[C@H](C)C[C@H](N(C)C)[C@H]2O)[C@](C)(O)C[C@@H](C)C(=NOCCN(C(C)C)C(C)C)[C@H](C)[C@@H](O)[C@]1(C)O [Example 41, 9-[O-(2-disopropylamino-ethyl)-oxime] of erythromycin] | 0.05 (≈ 0.0571 µM) | – | 1 (≈ 1.14 µM) | 0.2 (≈ 0.228 µM) | 0.2 (≈ 0.228 µM) | 1 (≈ 1.14 µM) | 0.5 (≈ 0.571 µM) | – | – | – | – | 10 | 9
CC[C@H]1OC(=O)[C@H](C)[C@@H](O[C@H]2C[C@@](C)(OC)[C@@H](O)[C@H](C)O2)[C@H](C)[C@@H](O[C@@H]2O[C@H](C)C[C@H](N(C)C)[C@H]2O)[C@](C)(O)C[C@@H](C)C(=NOCCN(CC)CC)[C@H](C)[C@@H](O)[C@]1(C)O [Example 31, 9-[0-(2-diethylaminoethyl)-oxime] of erythromycin] | 0.02 (≈ 0.0236 µM) | – | 1 (≈ 1.18 µM) | 0.1 (≈ 0.118 µM) | 0.1 (≈ 0.118 µM) | 1 (≈ 1.18 µM) | 0.5 (≈ 0.59 µM) | – | – | – | – | 10 | 4
CC[C@H]1OC(=O)[C@H](C)[C@@H](O[C@H]2C[C@@](C)(OC)[C@@H](O)[C@H](C)O2)[C@H](C)[C@@H](O[C@@H]2O[C@H](C)C[C@H](N(C)C)[C@H]2O)[C@](C)(O)C[C@@H](C)C(=NOCCN2CCCCC2)[C@H](C)[C@@H](O)[C@]1(C)O [Example 34, 9-[O-(2{-piperidin-1-yl}-ethyl)-oxime] of erythromycin] | ≤ 0.01 | 0.2 (≈ 0.233 µM) | 0.6 (≈ 0.698 µM) | 0.05 (≈ 0.0581 µM) | 0.1 (≈ 0.116 µM) | 0.6 (≈ 0.698 µM) | 0.4 (≈ 0.465 µM) | – | – | – | – | – | –
